Activity calls are given as the source filed them. Cut-off read from the data, not from the text of the source, for most assays here: actives have a measured EC50 and inactives only a lower limit.
Columns and labels:
cells [1] = format: functional, cell-based
cells [2] = format: functional, cell-based; remark: listed apart in the source
[3] = tested on: Streptococcus sp. 'group A'; test: growth inhibition of control SK(-) GAS strain, dose response, counter-screen for streptokinase expression inhibitor project, luminescence, kanamycin, BacTiterGlo, confirmation (AID 1900); format: functional, organism-based
[4] = microbe, parasite or virus in culture; format: functional; conditions: Mycobacterium tuberculosis
[5] = inhibitors of SNCA 5'UTR-driven reporter translation, confirmation, H4 neuroglioma cells, luminescence (AID 1988); format: functional, cell-based
Streptokinase A = molecular target: T1, Streptokinase A (Streptococcus pyogenes serotype M1, UniProt P10520); test: S. pyogenes streptokinase expression inhibitors, potency, dose response, plasminogen activation absorbance, OD405 (AID 1914); format: functional, Streptococcus pyogenes M1 GAS;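 note: secreted streptokinase activity via plasminogen activation per viability signal from cell pellet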
T1 sequence (P10520 whole entry): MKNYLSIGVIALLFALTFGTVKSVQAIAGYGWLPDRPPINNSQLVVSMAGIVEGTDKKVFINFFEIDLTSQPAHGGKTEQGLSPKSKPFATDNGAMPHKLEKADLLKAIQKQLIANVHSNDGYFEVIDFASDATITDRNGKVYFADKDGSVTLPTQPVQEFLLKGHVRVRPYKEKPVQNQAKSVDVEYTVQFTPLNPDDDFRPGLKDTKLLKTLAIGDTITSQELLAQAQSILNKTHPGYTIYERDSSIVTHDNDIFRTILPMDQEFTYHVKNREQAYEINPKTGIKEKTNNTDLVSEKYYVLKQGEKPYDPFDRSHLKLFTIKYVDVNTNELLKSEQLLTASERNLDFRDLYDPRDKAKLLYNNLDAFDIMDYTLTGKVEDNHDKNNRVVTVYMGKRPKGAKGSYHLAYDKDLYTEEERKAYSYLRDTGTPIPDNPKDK

[6] = Luminescence Cell-Based Dose Response HTS to Identify Inhibitors of 5'UTR Stem-Loop Driven Prion Protein mRNA Translation in H4 Neuroglioblastoma Cells. [Related pubchem assays: 1827 (Project Summary), 1813 (Primary HTS)]; format: functional
[7] = inhibitors of firefly luciferase expression or activity, dose response, H4 neuroglioma cells, luminescence (AID 1990); format: functional, cell-based
Streptococcus = test: Group A Streptococcus viability loss, dose response, counter-screen for streptokinase expression inhibitor project, luminescence, BacTiterGlo (AID 1915); format: functional, organism-based;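 note: potency for reduction of bacterial viability or growth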
[8] = Luminescence Cell-Based Dose Confirmation HTS to Identify Inhibitors of Platelet Dense Granule Release. [Related pubchem assays: 1663 (Primary HTS), 1678 (Summary of Project)]; format: functional
[9] = molecular target: Luciferin 4-monooxygenase (Photinus pyralis, UniProt P08659); test: firefly luciferase enzyme inhibitors, dose response, biochemical, luminescence (AID 1891)
[10] = growth suppression of PTEN-null colon cells, dose response, cell-based, HCT116 PTEN knockout (AID 1047); format: functional;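 note: HCT116 colon tumor cells with PTEN knocked out; cells exposed to compound for 60 hours before readout; potency for loss of cell viability measured by luminescence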
[11] = Luminescence Cell-Based Dose Retest to Confirm Inhibitors of Cancer Stem Cells. [Related pubchem assays (depositor defined):AID2717, AID2721]; format: functional; conditions: Homo sapiens
[12] = growth suppression of beta-catenin-knockout colon cells, dose response, cell-based, HCT116, human colon tumor (AID 1045); format: functional;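 note: HCT116 colon tumor cells with beta catenin knocked out; cells exposed to compound for 60 hours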
[13] = HEp-2 cell cytotoxicity, dose response, cytotoxicity control for RSV inhibitor project, HTS (AID 2410); format: functional; conditions: human respiratory syncytial virus
H9c2 = test: cells; format: functional, cell-based; conditions: Rattus norvegicus, H9c2, Myocardium;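 note: confirmatory concentration-response retest of ultra-high-throughput screening hits for modulation of myocardial damage; cell death induced by hydrogen peroxide oxidative stress; compound pretreatment for 60 min then peroxide exposure for 2 h; potency is for protecting the cells against peroxide damage rather than for killing them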
[14] = inhibitors of intracellular T. cruzi replication, confirmation, NIH3T3 host cells, beta-gal luminescence (AID 2044); format: functional, cell-based;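 note: intracellular parasites grown in NIH/3T3 mouse fibroblasts as host cells; luminescent beta-galactosidase reporter signal from transgenic T. cruzi replicating inside host cells; inhibitors lower the luminescence signal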
[15] = cytotoxicity toward NIH3T3 fibroblasts, dose response, counter-screen, cell-based, ATP luminescence, mouse fibroblasts (AID 2010); format: functional;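 note: cells exposed to compound for about 90 hours before reading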
cells [16] = format: functional
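Throughout, for AC50: cells exposed to compound for roughly 70 hours or longer before luminescence read.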

Luciferin 4-monooxygenase, sequence (P08659 whole entry): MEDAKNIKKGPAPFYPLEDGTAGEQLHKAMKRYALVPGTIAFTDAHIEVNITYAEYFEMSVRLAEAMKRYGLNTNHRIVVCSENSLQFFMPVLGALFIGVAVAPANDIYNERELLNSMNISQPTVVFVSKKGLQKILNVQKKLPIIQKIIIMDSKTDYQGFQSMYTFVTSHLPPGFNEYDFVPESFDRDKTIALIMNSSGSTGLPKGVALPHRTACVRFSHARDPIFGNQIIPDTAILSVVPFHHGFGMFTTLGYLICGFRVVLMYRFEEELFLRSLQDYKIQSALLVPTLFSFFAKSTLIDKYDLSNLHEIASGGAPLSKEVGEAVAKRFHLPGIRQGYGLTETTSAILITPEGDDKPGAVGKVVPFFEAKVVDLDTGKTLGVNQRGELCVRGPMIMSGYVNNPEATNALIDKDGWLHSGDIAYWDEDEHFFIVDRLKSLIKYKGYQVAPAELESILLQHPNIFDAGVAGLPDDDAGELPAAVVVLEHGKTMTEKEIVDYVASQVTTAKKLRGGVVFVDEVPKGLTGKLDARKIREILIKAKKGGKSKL

Question: With COc1ccc(NC(=O)CCC(=O)N(Cc2ccc(OC)c(OC)c2)c2nccs2)cc1 as the compound, how does the EC50 (cells [1]) read?
Answer: The EC50 was > 350 µM (not active).

Question: And the EC50 (cells [2])?
Answer: Its EC50 is > 350 µM (not active).

Question: For CC1(C)Cc2c(sc(NC(=O)c3ccc(C(=O)c4ccccc4)cc3)c2C(N)=O)C(C)(C)N1, which EC50 [3] is on record?
Answer: The EC50 was 26.3 µM (active).

Question: What about the CC50 [4] of the same compound?
Answer: Its CC50 is 20.7 µM (active).

Question: What about the EC50 [5] of the same compound?
Answer: Its EC50 is 11.6 µM (active).

Question: What about the EC50 (Streptokinase A) of the same compound?
Answer: The EC50 was > 150 µM (not active).

Question: What about the EC50 [6] of the same compound?
Answer: The EC50 was 16.9 µM (active).

Question: And the EC50 [7]?
Answer: The EC50 was 10.3 µM (active).

Question: And the EC50 (Streptococcus)?
Answer: Its EC50 is > 150 µM (not active).

Question: With Cc1ccc(S(=O)(=O)c2nc(-c3ccccc3Cl)oc2N(C)C)cc1 as the compound, how does the EC50 (cells [1]) read?
Answer: The EC50 was > 350 µM (not active).

Question: What about the EC50 (cells [2]) of the same compound?
Answer: Its EC50 is > 350 µM (not active).

Question: What does the source list for COc1ccc2c(c1)N(C(=O)CSc1n[nH]c(C)n1)C(C)(C)C=C2C?
Answer: EC50 [8]: > 112 µM (not active); EC50 [9]: > 112 µM (not active)

Question: For CCCOC(=O)c1ccc(NC(=O)c2ccoc2C)cc1, which EC50 [8] is on record?
Answer: Its EC50 is 5.2 µM (active).

Question: What about the EC50 [9] of the same compound?
Answer: Its EC50 is 4.18 µM (active).

Question: Which EC50 [10] does the source give for CC(C)OCCCNC(=O)c1c(N)n(Cc2cccs2)c2nc3ccccc3nc12 here?
Answer: Its EC50 is 84.7 µM (active).

Question: And the AC50 [11]?
Answer: The AC50 was 3.51 µM (active).

Question: And the EC50 [12]?
Answer: The EC50 was 216 µM (active).

Question: With CCOC(=O)C1CCCN(C(=O)c2ccc3nc(-c4ccccc4)c(-c4ccccc4)nc3c2)C1 (configuration not stated) as the compound, how does the EC50 (cells [1]) read?
Answer: Its EC50 is > 350 µM (not active).

Question: What about the EC50 (cells [2]) of the same compound?
Answer: The EC50 was > 350 µM (not active).

Question: For O=c1cc(-c2ccncc2)oc2ccccc12, which CC50 [13] is on record?
Answer: Its CC50 is 36.7 µM (active).

Question: What about the IC50 (H9c2) of the same compound?
Answer: The IC50 was > 79 µM (inactive).

Question: For CCNC(=O)COc1cccc(C(=O)NCc2ccccc2)c1, which EC50 (cells [1]) is on record?
Answer: Its EC50 is > 350 µM (not active).

Question: What about the EC50 (cells [2]) of the same compound?
Answer: Its EC50 is > 350 µM (not active).

Question: For COc1ccc(-c2nn(-c3ccccc3)cc2C(=O)O)cc1OC, which EC50 [8] is on record?
Answer: The EC50 was > 112 µM (not active).

Question: What about the EC50 [9] of the same compound?
Answer: The EC50 was > 112 µM (not active).

Question: For O=C(/C=C/c1cn(-c2ccccc2)nc1-c1cccnc1)c1ccco1, which CC50 [4] is on record?
Answer: Its CC50 is 11.5 µM (active).

Question: For CC(OC(=O)Cc1nnc(O)c2ccccc12)C(=O)Nc1ccccc1[N+](=O)[O-] (configuration not stated), which IC50 (H9c2) is on record?
Answer: Its IC50 is > 79 µM (inactive).

Question: With Cc1c(NC(=O)CSc2cccc3cccnc23)c(=O)n(-c2ccccc2)n1C as the compound, how does the EC50 [10] read?
Answer: The EC50 was 17.4 µM (active).

Question: What about the EC50 [14] of the same compound?
Answer: The EC50 was 1.31 µM (active).

Question: What about the EC50 [12] of the same compound?
Answer: The EC50 was 17 µM (active).

Question: What about the EC50 [15] of the same compound?
Answer: Its EC50 is > 30 µM (not active).

Question: For O=C1/C(=C\c2ccc([N+](=O)[O-])cc2)CCc2ccccc21, which EC50 [8] is on record?
Answer: The EC50 was 2.53 µM (active).

Question: What about the EC50 [9] of the same compound?
Answer: The EC50 was 8.13 µM (active).

Question: With FC(F)(F)c1cnc(N2CCN(C(S)=NCc3ccccc3)CC2)c(Cl)c1 as the compound, how does the EC50 (cells [1]) read?
Answer: The EC50 was > 350 µM (not active).

Question: What about the EC50 (cells [2]) of the same compound?
Answer: Its EC50 is > 350 µM (not active).

Question: Which EC50 [8] does the source give for Cc1ccc(NC(=O)N2CCC(c3ccccc3)C2)cc1C (configuration not stated) here?
Answer: Its EC50 is > 112 µM (not active).

Question: What about the EC50 [9] of the same compound?
Answer: Its EC50 is > 112 µM (not active).

Question: For CCOc1ccc(-c2cc(CCCC(=O)NCCC(C)C)no2)cc1, which CC50 [4] is on record?
Answer: The CC50 was > 40 µM (active).

Question: What about the IC50 (cells [16]) of the same compound?
Answer: The IC50 was 10.6 µM (active).

Question: With COCCCn1c(C)nc2c(c1=O)c1nc3ccccc3nc1n2CCc1ccccc1 as the compound, how does the IC50 (H9c2) read?
Answer: Its IC50 is 11.7 µM (active).

Question: With CC(=O)c1ccc2c(c1)C1C(Cl)C(Sc3ccccc3[N+](=O)[O-])CC1C(c1ccccc1)N2 (configuration not stated) as the compound, how does the CC50 [4] read?
Answer: Its CC50 is > 40 µM (active).

Source: ChEMBL document CHEMBL1201862, “PubChem BioAssay data set” (2004)
